Experimental data taken from US11708423B2, “Chimeric engulfment receptor molecules and methods of use” (CERO THERAPEUTICS, INC., priority 2017, dated 2023).

Assays:
[1] = test system: HCC159 lung adenocarcinoma cells; assay: Tim4-IgG1 Fc staining for phosphatidylserine exposure after EGFR inhibitor treatment; type: cell-based; conditions: 12 hours, increasing concentrations 50 nM and higher
Text: HCC159 lung adenocarcinoma cells harbor an EGFR mutation and are sensitive to EGFR inhibition.

[2] = test system: dexamethasone pre-treated thymocytes; assay: Phagocytosis of thymocytes by CER Ba/F3 cells in presence or absence of Racl inhibitor; type: cell-based

Compound: C#Cc1cccc(Nc2ncnc3cc(OCCOC)c(OCCOC)cc23)c1 [Erlotinib]
- surface staining with Tim4-IgG1 Fc fusion protein (phosphatidylserine exposure) [1]: enhanced surface staining with Tim4-IgG1 Fc fusion protein

Compound: CCN(CC)CCCC(C)Nc1nc(C)cc(Nc2ccc3nc(C)cc(N)c3c2)n1 (stereo not shown) [NSC23766]
- effect of Racl inhibitor on phagocytosis by CER21-transduced Ba/F3 cells ([2]; 6 hour co-culture, FACS): abolishes phagocytosis
- effect of Racl inhibition on CER116 mediated phagocytosis ([2]; Ba/F3 cells, fluorescent micrographs): abolishes CER116 mediated phagocytosis of thymocytes

Compound: C=CC(=O)Nc1cc(Nc2nccc(-c3cn(C)c4ccccc34)n2)c(OC)cc1N(C)CCN(C)C [Osimeritinib]
- surface staining with Tim4-IgG1 Fc fusion protein (phosphatidylserine exposure) [1]: enhanced surface staining with Tim4-IgG1 Fc fusion protein
